# Data reported in patent US10633374B2, “Small molecule based antibody-recruiting compounds for cancer treatment” (YALE UNIVERSITY, priority 2015, dated 2020).
# Key:
# [1] = tested on: B16 melanoma tumors expressing human uPAR; assay: B16 mouse melanoma allograft model expressing human uPAR; format: in vivo
# Source text: The inventors also examined the efficacy of ARM-U2 in a B16−uPAR mouse allograft model developed in our laboratory. Mice immunized to produce anti-DNP IgG antibodies containing tumors expressing human uPAR, received daily treatment via intraperitoneal (IP) injection and were monitored over the course of 42 days.
# uPAR (uPA binding site) = target: T1, uPAR (uPA binding site) (Homo sapiens, UniProt Q03405); assay: Competitive ELISA uPAR binding assay (immobilized urokinase)
# T1 construct: purchased R&D systems
# Description: The affinity of ARM-U2 derivatives differing in both the length of the DNP-linker substituted at position 2 of ring C and the display of negative charge density (FIG. 8, Table 1) for uPAR were assayed using a competitive ELISA binding assay. The assay involves the immobilization of urokinase, a natural high affinity ligand for uPAR followed by the addition of a fixed concentration of recombinant uPAR protein and increasing concentrations of ARM-U2 which competes with urokinase for binding to the uPA binding site of uPAR. Following several washing steps, the amount of uPAR bound is quantified by a biotinylated anti-uPAR antibody and avidin-HRP and can be fit to a competitive binding model allowing for the extraction of the uPAR/ARM-U2 Kd.
# All ARM-U2 derivatives were assessed for their ability to bind selectively to recombinant uPAR in vitro using a competitive ELISA binding assay. DMSO stock solutions of each ARM-U2 derivative stored at −20° C. were titrated into wells pre-coated with human urokinase (isolated from human urine, ProSpec 1 mg/ml deI water 18.5 μM) in the presence of uPAR. Selective binding to uPAR by ARM-U2 at the uPA binding site competes with uPAR-uPA binding which is required for a positive UV 450 nm absorbance signal. Increasing concentrations of ARM-U2 displace increasing amounts of uPAR from uPA which is detected by anti-uPAR/biotin labeled antibodies followed by avidin-HRP. The sigmoidal binding isotherm of absorbance at 450 nm vs log ARM-U2 concentration can then by fit by non-linear regression analysis to obtain the IC50 for ARM-U2/uPAR binding (Equation S2) which can then be translated into a KI for ARM-U2/uPAR binding using a competitive binding model adapted from the Cheng-Prusoff equation relating KI to IC50 (Equation S3). The ELISA experiments were performed as followed: To Corning high binding 96 well flat bottom plates was added 100 μl/well of 100 nM urokinase in sterile PBS. The plates were sealed and left to incubate at 4° C. overnight. The plates were then washed 1× with 200 μl wash buffer (PBS+0.05% Tween-20) and 1× with 400 μl wash buffer. The plates were blotted on paper towel and blocked for 1 h shaking at room temp with 300 μl of a solution of thermo superblock in PBS per well. Molecule dilutions into solutions of a fixed concentration (10 nM) of uPAR were prepared in 0.025% triton-X/PBS on a separate low binding plate during the blocking hour. The plates were again washed followed by the addition of 100 μl of the ARM-U2/uPAR solution with 0.1% final DMSO concentration. The solutions were mixed by multichannel pipette, sealed, and incubated for 2 h with shaking at room temperature. The plates were then washed 1× with 200 μl wash buffer (PBS+0.05% Tween-20) and 2× with 400 μl wash buffer. The plates were blotted on a paper towel followed by the addition of 100 μl/well of a solution of biotinylated anti-uPAR antibody in 1% BSA/PBS. (R&D Systems, 3.3 μl taken from 50 μg/250 μl-1000× stock) and incubation with shaking for 1 h at room temp. The plates were washed 1× with 200 μl wash buffer and 2× with 400 μl wash buffer and blotted on a paper towel. 100 μl of avidin-HRP (stock −500× from e-bioscience) were added per well, incubated 20 min with shaking at room temp followed by washing 1× with 200 μl wash buffer and 3× with 400 μl wash buffer. The plates were blotted dry with paper towel and 100 μl of TMB substrate was added to each well. The emergence of blue color was monitored and the reaction quenched with the addition of 50 μl of 2M sulfuric acid to each well followed by measuring the absorbance at 450 nm using a fluorescence plate reader. […]
# A172 glioblastoma cells = assay: Antibody-dependent cellular phagocytosis (ADCP) of A172 cells by U937 cells; format: cell-based, human; settings: U937 effector cells, anti-DNP antibodies
# Description: ADCP experiments carried out via a dual channel flow cytometry assay and were performed by measuring the % phagocytosis of A172 human glioblastoma cells by IFN-gamma primed U937 macrophage effector cells each stained with FL-1 and FL-4 dyes respectively giving rise to double positive FL-1 and FL-4 fluorescence shifts accompanying phagocytosis. These assays were performed in the presence and absence of exogenously added anti-DNP antibodies and various concentrations of each ARM-U2 derivative. Control experiments were also performed to confirm that cellular phagocytosis is occurring and is dependent on ARM-U2 binding cell surface uPAR by • 1. Performing out competitions with exogenous uPAR, • 2. Performing out-competitions with 6-ABT-4 which should bind uPAR but not anti-DNP antibodies • 3. Performing ADCP at 4 degrees Celsius where phagocytosis cannot occur and • 4. Amnis microscopic analysis of double positives identified in the ADCP assay to undergo 6-ABT-1 dependent phagocytosis.
# IFNγ-primed U937 cells were stained with DiD dye (final concentration 1.9 μM) for 30 min at 37° C. A172 target cells were prepared by staining adherent cells with DiO dye (Invitrogen; final concentration 1.9 μM), and then nonenzymatically detaching the cells with 0.5 mM EDTA and EGTA. Cells were counted with trypan blue staining to verify cell viability. To measure phagocytosis, 2.5×10^4 target cells were suspended in 25 ul phenol-free low-IgG RPMI media to which 25 ul of 100 nM anti-DNP antibody (rabbit polyclonal KLH IgG, Invitrogen-100× stock) containing media was added followed by the addition of 1 ul of ARM-U2 from 100×DMSO stocks or 6-ABT-4 from 100×DMSO stocks for compound out-competition experiments, followed by the addition of 50 ul of 10^5 U937 cells in the same RPMI Assay Media resulting in a final volume of 100 uL. This experimental setup yielded an effector-to-target ratio (E:T ratios) of 4:1. For out-competition studies with exogenous uPAR, 250 ul of A-172 target cells in assay media was added directly to lyophilized 100 ug uPAR (R@D systems) to yield an 8.4 uM stock uPAR concentration, this was then combined in the manner and order described above. Eppendorfs were centrifuged at 200 rcf for 2 min then incubated at 37° C. for 1 hour or at 4° C. for 1 hr in controls establishing real phagocytosis is indeed represented by double positives in flow cytometry. Phagocytosis was halted by placing tubes on ice. […] The live cell population selected was further gated into four quadrants using dual FL-1 and FL-4 fluorescence enabling for the differentiation of effector only cells (top left quadrant-high FL-4), target only cells (bottom right quadrant-high FL-1 fluorescence), and double positive overlapping target and effector cells (top right quadrant-high FL-1 and FL-4 fluorescence). […]
# T1 sequence (Q03405 23-305): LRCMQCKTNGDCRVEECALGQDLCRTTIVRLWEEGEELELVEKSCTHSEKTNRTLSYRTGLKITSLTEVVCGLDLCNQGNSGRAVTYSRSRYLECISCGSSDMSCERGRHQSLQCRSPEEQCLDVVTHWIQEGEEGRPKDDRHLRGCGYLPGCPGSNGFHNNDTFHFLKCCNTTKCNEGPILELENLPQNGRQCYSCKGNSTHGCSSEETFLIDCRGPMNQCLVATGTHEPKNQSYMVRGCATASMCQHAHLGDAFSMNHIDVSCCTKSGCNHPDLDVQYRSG
SMILES,uPAR-binding affinity relative to parent ARM-U2 derivative 1-ABT-1 (uPAR (uPA binding site)),ADCP efficacy and potency compared to 1-ABT-1 (A172 glioblastoma cells),also measured
COc1cccc2c1C(=O)c1c(O)c3c(c(O)c1C2=O)C[C@@](O)(C(=O)CO)C[C@@H]3O[C@H]1C[C@H](N)[C@H](O)[C@H](C)O1 [doxorubicin],–,–,"average tumor volume after 17 days ([1]; IP injections over 17 days): approximately 200 mm^3; mean survival ([1]; daily IP treatment): 27 days; tumor growth inhibition (TGI) ([1]; daily IP, ARM-U2 20 mpk or 100 mpk, Dox 1 mpk, vs PBS): comparable; persistence of tumor regression after treatment cessation ([1]; mouse, in vivo): ~14 days"
O=C(O)CNC(=O)c1cccc(Nc2cc(N3CCC[C@H](C(=O)NCCCOCCOCCOCCCNc4ccc([N+](=O)[O-])cc4[N+](=O)[O-])C3)c3noc4c3c2C(=O)c2ccccc2-4)c1 [3-ABT-1],modest increase in affinity,no increase in efficacy or potency in ADCP,–
O=C(O)CNc1cccc(Nc2cc(N3CCC[C@H](C(=O)NCCCOCCOCCOCCCNc4ccc([N+](=O)[O-])cc4[N+](=O)[O-])C3)c3noc4c3c2C(=O)c2ccccc2-4)c1 [4-ABT-1],modest increase in affinity,no increase in efficacy or potency in ADCP,–
O=C(O)c1cc(Nc2cc(N3CCC[C@H](C(=O)NCCCOCCOCCOCCCNc4ccc([N+](=O)[O-])cc4[N+](=O)[O-])C3)c3noc4c3c2C(=O)c2ccccc2-4)cc(C(=O)O)c1 [2-ABT-1],no increase in uPAR-binding affinity,no increase in efficacy or potency in ADCP,–
O=C1c2ccccc2-c2onc3c(N4CCC[C@H](C(=O)NCCCOCCOCCOCCCNc5ccc([N+](=O)[O-])cc5[N+](=O)[O-])C4)cc(Nc4cccc(S(=O)(=O)O)c4)c1c23 [5-ABT-1],no increase in uPAR-binding affinity,no increase in % phagocytosis,–
Nc1c(N2CCCC(C(=O)NCCCOCCOCCOCCCNc3ccc([N+](=O)[O-])cc3[N+](=O)[O-])C2)cc(Nc2ccc(S(=O)(=O)O)cc2S(=O)(=O)O)c2c1C(=O)c1ccccc1C2=O (centres unmarked) [compound 23],–,–,Ki (uPAR (uPA binding site); calculated from the ELISA IC50): 0.01 µM; IC50 (uPAR (uPA binding site); competition with immobilized uPA for uPAR): 0.063 µM
